Test results as given in patent EP0102564A2, “Method for the removal of toxins bound to protein or lipid from blood or blood fractions, and use of certain compounds as liberating agents” (FRAUNHOFER-GESELLSCHAFT ZUR FÖRDERUNG DER ANGEWANDTEN …, priority 1982, dated 1984).
Where two headings read alike, the source gives them in different places.

Columns and labels:
Plasmaproteine = conditions: cited from earlier work
[1] = target: T1, Ethanthiol-Protein-Komplex (BSA) (Bos taurus, UniProt P02769); experiment: Variation of the uncoupler amount, release of ET from BSA; set-up: species or system Rind; conditions: compared with reduced Glutathion
T1 construct: Rinderserumalbumin (BSA, bovine serum albumin); purchased Behring, Marburg
Experimental: Um die Wirksamkeit der beiden Entkoppler vergleichen zu können, wurden Proben mit 40 mg BSA auf 1 ml ET-Lösung (2170/umol ET/1 PBS) über Nacht bei 37 °C inkubiert. Nach dieser Zeit betrug die freie Thiolkonzentration ca. 2 bis 5% der Ausgangskonzentration. Nach der Zugabe unterschiedlicher Entkoppler-Mengen wurde die Freisetzung des ET gaschromatographisch verfolgt. Fig. 3 und 4 zeigen den Verlauf der ET-Konzentration als Funktion der Zeit. Die Zugabe des Entkopplers erfolgte zum Zeitpunkt t = o. Der Parameter K entspricht dem molaren Verhältnis zwischen eingesetzter Entkoppler-Menge und eingesetzter ET-Thiolmenge.

Plasma = experiment: Removal of protein-bound ET from plasma; conditions: for Restkonzentration an ET nach Adsorption an AK mit vorheriger Freisetzung durch Entkoppler: 30 mg AK, 45 min, relative to initial value
BSA [2] = target: T2, BSA (Bos taurus, UniProt P02769); experiment: Adsorption of protein-bound ET on activated carbon without prior release, BSA; set-up: species or system Rind; conditions: K = 110, added after removal of carbon; BSA and HSA samples
Experimental: (§1) Um die Leistungsfähigkeit der ET-Entfernung nach vorhergehender Abkopplung von Protein beurteilen zu können, wurde die Adsorptionskinetik ohneverwendung eines Entkopplers untersucht. Dazu wurden im Batchversuch Proben, die 40 mg BSA oder HSA auf 1 ml ET-Lösung (2170/umol ET/ 1 PBS) enthielten, über Nacht auf einem Rollermixer inkubiert. Nach Einstellen des Gleichgewichts wurde am nächsten Tag die Konzentration an ET bestimmt. Sie lag für BSA bei ca. 11% und für HSA bei ca. 21% der Ausgangskonzentration. Zu beiden Proben wurden 30 mg SCII (vorher in PBS entgast) zugegeben und die freie ET-Konzentration fortlaufend gemessen. Nach 45 Minuten wurden die AK entfernt und Cystein zugegeben. […] Fig. 6 zeigt den Verlauf der ET-Konzentration. Die Probe, die HSA enthielt, wies eine Abnahme der ET-Menge durch Adsorption von 78% auf, die Probe mit BSA lediglich von ca. 68%. Dieses Ergebnis deckt sich mit der Beobachtung,daß ET stärker an BSA gebunden ist als an HSA. Damit konnte gezeigt werden, daß proteingebundenes ET durch Aktivkohle entfernt werden kann. Die Restkonzentration liegt jedoch relativ hoch, und die Kinetik ist langsam.

BSA [3] = target: T2, BSA; experiment: Adsorption of ET on activated carbon after prior release by uncoupler, BSA, batch; set-up: species or system Rind
Experimental: In dieser Versuchsreihe wurde das Zusammenwirken aller bisher betrachteten Parameter im Batch erprobt. 1 ml ET-Lösung (2170/umol ET/1 PBS) wurden für ca. 18 Stunden bei 37°C mit 40 mg BSA inkubiert. Nach dieser Zeit beträgt die ET-Konzentration lediglich 5% des Ausgangswerts (d.h. 95% des ET sind an das BSA gebunden). Nun erfolgte die Zugabe von 150/ul Entkoppler (K-Cystein = 115, Fig. 7, Kurve a; K-Glutathion = 30, Fig. 8, Kurve a). Die Abkopplung des ET wird verfolgt, bis keine Zunahme der ET-Konzentration mehr eintritt. Bei der Verwendung von Cystein erfolgt die Freisetzung schneller als bei Glutathion.
Nun wurden 30 mg SCII (vorher in PBS entgast) zu den Proben hinzugegeben. Die ET-Konzentration nimmt nun rasch ab. Die gesamte Restmenge beträgt nach 45 Minuten nur noch ca. 5% des Anfangswerts. Es wurden also 95% der vorgegebenen Thiolmenge von 30 mg AK entfernt.
In einer weiteren Versuchsreihe wurde untersucht, ob der Entkoppler auch wirksam ist, wenn er zuvor an Aktivkohle adsorbiert wurde. Dazu wurden 30 mg SCII mit den Entkoppler-Lösungen 2 Stunden inkubiert. Diese vorbeladene Kohle wurde dann statt der Entkoppler-Lösung eingesetzt. Fig. 7 und 8 (jeweils Kurve b) zeigen den Abkopplungsvorgang. Die freie ET-Konzentration steigt in beiden Fällen nicht auf den Anfangswert an. Dem Freisetzungsprozeß ist eine Adsorption überlagert. Sie liegt bei AK-Glutathion um ca. 50% tiefer als bei AK-Cystein. Nach Zugabe von 30 mg AK (in PBS entgast) fällt die ET-Konzentration schnell ab. Nach 45 Minuten beträgt die adsorbierte Menge bei Verwendung von Cystein ca. 97%, bei Verwendung von Glutathion ca. 95%.

[4] = Removal of protein-bound ET from plasma
Fibrinogen = target: T3, Fibrinogen (Bos taurus, UniProt P02672+P02676+P12799)
T3 sequence (P02672 20-615): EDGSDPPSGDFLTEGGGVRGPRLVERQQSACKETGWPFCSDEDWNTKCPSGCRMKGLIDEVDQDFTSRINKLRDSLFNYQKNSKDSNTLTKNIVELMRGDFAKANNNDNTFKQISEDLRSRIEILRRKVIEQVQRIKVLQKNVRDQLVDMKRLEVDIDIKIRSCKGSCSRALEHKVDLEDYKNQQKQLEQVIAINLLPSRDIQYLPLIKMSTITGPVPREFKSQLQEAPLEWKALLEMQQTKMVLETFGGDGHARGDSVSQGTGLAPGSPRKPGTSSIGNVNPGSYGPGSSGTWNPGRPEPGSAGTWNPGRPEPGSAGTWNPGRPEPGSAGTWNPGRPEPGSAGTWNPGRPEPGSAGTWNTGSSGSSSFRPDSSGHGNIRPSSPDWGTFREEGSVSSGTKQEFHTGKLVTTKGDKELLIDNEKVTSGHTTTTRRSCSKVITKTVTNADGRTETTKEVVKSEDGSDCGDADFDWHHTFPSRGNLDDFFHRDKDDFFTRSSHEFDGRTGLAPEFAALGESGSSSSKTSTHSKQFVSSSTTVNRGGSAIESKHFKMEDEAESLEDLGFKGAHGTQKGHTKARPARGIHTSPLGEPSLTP
T3 sequence (P02676 1-468): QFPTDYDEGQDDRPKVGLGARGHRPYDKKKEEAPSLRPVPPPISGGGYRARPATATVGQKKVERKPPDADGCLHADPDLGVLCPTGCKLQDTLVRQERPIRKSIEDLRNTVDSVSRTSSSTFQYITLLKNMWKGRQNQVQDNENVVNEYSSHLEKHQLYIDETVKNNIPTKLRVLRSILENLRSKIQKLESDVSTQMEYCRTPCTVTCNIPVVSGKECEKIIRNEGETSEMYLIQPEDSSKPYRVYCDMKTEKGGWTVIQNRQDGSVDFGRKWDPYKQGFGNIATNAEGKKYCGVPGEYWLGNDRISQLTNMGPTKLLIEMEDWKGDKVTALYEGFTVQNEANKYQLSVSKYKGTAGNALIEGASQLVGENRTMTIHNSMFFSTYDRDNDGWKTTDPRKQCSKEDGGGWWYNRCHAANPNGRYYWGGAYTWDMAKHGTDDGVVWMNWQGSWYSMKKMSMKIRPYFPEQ
T3 sequence (P12799 25-444): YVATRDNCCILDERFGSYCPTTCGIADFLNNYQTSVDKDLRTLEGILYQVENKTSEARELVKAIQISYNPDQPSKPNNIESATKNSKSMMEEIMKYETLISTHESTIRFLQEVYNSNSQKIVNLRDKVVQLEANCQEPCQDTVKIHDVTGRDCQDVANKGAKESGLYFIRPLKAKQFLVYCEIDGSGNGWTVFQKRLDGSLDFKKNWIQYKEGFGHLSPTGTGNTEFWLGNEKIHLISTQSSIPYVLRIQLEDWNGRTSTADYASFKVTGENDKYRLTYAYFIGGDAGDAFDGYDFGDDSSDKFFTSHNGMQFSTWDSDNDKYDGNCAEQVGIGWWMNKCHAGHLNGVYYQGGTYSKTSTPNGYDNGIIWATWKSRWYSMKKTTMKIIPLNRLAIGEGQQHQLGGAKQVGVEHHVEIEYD

BSA [5] = target: T2, BSA; experiment: Binding of Ethanthiol to BSA, gas chromatography (headspace)
HSA [6] = target: T4, HSA (Homo sapiens, UniProt P02768); experiment: Binding of Ethanthiol to HSA, gas chromatography (headspace); assay type: in vitro ADME; conditions: 40 mg HSA per 1 ml ET solution, overnight, equilibrium
T4 construct: Humanserumalbumin (HSA); purchased Behring, Marburg or Sigma, St. Louis (fatty-acid-free)
Experimental: as §1

BSA [7] = target: T2, BSA; experiment: in vitro; conditions: bovine
[8] = test system: Methotrexat, Proteinbindung; experiment: Uncoupling of toxin from protein binding, molar ratio K (Table III), toxin Methotrexat; conditions: molar ratio of uncoupler to toxin
Text: Werte können Tabelle III entnommen werden.

HSA [9] = target: T4, HSA; experiment: Binding study of toxins to protein, ultrafiltration and photometry, HSA; assay type: in vitro ADME; conditions: HSA 80 mg in 2 ml PBS, depends on initial concentration, read-out: MTX in ungebundener Form
Experimental: Es wurden beide Verfahren der Druckerzeugung (Druckluft, Zentrifugation) erprobt. Dazu wurden die Proben (2 ml) in die Trennzelle gefüllt und ein Teil (150fu1) abgetrennt. Durch diesen kleinen Probenverlust wird das Gleichgewicht der Probe nur schwach gestört. Die Konzentrationen der einzelnen Substanzen (Toxin und Protein) wurden photometrisch mit einem Mehrkomponentenanalyseprogramm ermittelt. Beide Meßverfahren führten zu den gleichen Ergebnissen. Bevorzugt ist das Verfahren der Ultrafiltration mit Hilfe der Zentrifugation. Dieses Verfahren erlaubt einen höheren Probendurchsatz als das Verfahren mit Druckluft. Die verwendeten Proteinkonzentrationen waren physiologisch (Albumin 40 g/l; Fibrinogen 4 g/l). Aus den bekannten Anfangskonzentrationen und der gemessenen Konzentration an freiem ungebundenen Toxin lassen sich die Bindungsparameter sowie die Adsorptionsisothermen punktweise ermitteln.
Das freie ungebundene Toxin wurde durch Ultrafiltration gewonnen und die Konzentration photometrisch mit Hilfe der Mehrkomponentenanalyse bestimmt. Die Ausgangsproben enthielten 80 mg Protein und wurden mit PBS auf 2 ml aufgefüllt (physiologische Konzentration). Die Toxinmenge wurde zwischen 100 und 1GOO/ug variiert. Es zeigten sich deutliche Unterschiede zwischen BSA und HSA.

BSA [10] = target: T2, BSA; experiment: Binding study of toxins to protein, ultrafiltration and photometry, BSA; conditions: bovine, bsa in pbs
BSA [11] = target: T2, BSA; experiment: Competitive adsorption of fatty acids and Ethanthiol on BSA; set-up: species or system Rind; conditions: rising oleic acid concentration
Text: Aus der Literatur ist bekannt, daß Fettsäuren eine starke Proteinbindung aufweisen. Proben, die Thiol und ölsäure (einfach ungesättigte Fettsäure) enthielten, zeigten abnehmende Thioladsorption bei steigender ölsäurekonzentration.

T2 sequence (P02769 25-607): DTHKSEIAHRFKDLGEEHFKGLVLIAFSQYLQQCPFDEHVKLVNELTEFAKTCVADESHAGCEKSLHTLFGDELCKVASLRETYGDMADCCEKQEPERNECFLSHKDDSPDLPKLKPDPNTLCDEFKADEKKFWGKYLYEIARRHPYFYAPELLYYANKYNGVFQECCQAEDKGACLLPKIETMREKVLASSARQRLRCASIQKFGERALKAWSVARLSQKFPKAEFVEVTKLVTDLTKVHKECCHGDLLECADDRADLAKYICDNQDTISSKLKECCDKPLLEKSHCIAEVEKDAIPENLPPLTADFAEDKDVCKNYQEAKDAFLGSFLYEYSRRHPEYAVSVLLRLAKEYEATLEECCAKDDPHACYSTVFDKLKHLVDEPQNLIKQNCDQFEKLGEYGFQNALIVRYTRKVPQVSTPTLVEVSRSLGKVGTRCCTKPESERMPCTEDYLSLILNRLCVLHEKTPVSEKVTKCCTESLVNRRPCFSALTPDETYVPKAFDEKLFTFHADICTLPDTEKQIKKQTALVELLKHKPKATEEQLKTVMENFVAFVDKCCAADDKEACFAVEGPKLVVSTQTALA
T4 sequence (P02768 25-609 limits assumed): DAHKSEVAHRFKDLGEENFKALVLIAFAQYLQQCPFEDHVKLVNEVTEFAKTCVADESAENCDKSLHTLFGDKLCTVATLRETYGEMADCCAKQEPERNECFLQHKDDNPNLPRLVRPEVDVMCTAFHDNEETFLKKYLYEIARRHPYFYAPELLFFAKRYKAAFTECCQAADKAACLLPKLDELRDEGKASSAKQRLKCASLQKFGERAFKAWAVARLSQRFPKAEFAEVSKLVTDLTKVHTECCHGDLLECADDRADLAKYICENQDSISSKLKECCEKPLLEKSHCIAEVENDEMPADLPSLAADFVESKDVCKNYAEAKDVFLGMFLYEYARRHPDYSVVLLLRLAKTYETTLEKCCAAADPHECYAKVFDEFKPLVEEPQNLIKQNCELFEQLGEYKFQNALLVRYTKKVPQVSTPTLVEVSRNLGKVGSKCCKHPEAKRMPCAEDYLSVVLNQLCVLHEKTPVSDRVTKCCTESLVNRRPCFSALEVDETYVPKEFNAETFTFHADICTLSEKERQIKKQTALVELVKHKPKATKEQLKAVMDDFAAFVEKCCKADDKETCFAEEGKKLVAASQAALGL
T1 sequence (P02769 25-607): as the sequence (P02769 25-607) above

## CCN(CC)CCCC(C)Nc1ccnc2cc(Cl)ccc12 (racemic) [Chloroquin]
Plasmaproteine; plasma
  Bindung von Pharmaka an Plasmaproteine: 55%

## CN(C)CCCN1c2ccccc2Sc2ccc(Cl)cc21 [Chlorpromazin]
Plasmaproteine; plasma
  Bindung von Pharmaka an Plasmaproteine: 90%

## O=c1ccc2ccccc2o1 [Coumarin]
Plasmaproteine; plasma
  Bindung von Pharmaka an Plasmaproteine: 99%

## N[C@@H](CS)C(=O)O [Cystein]
[1]
  K-Werte für den gleichen Freisetzungsgrad an ET: höher
Plasma
  Freisetzung, Geschwindigkeit im Vergleich zu Glutathion: schnellere Freisetzung
Plasma; uncoupler added directly
  Restkonzentration an ET nach Adsorption an AK mit vorheriger Freisetzung durch Entkoppler: 15%
Plasma; uncoupler pre-adsorbed on AK
  Restkonzentration an ET nach Adsorption an AK mit vorheriger Freisetzung durch Entkoppler: 4%
BSA [2]
  Freisetzung des noch vorhandenen Ethanthiols: totale Freisetzung
BSA [3]; K-Cystein = 115, K-Glutathion = 30
  Freisetzung, Geschwindigkeit im Vergleich zu Glutathion: schneller
BSA [3]; uncoupler pre-adsorbed on SCII, then 30 mg AK
  adsorbierte Menge nach 45 Minuten: ca. 97%

## CC1=NS(=O)(=O)c2cc(Cl)ccc2N1 [Diazoxid]
Plasmaproteine; plasma
  Bindung von Pharmaka an Plasmaproteine: 90%

## CCS [Ethanthiol]
[4]
  fraction unbound at 20 h, 2170 µM: 0.33
Fibrinogen
  von Fibrinogen gebundene molare Menge von Toxin im Vergleich zu Albumin: annähernd die gleiche molare Menge
BSA [5]
  Adsorption des Ethanthiols an BSA bis zur Nachweisgrenze dauert: ≤ 6 Stunden
BSA [5]; 40 mg BSA, 1 ml ET solution 2170 µmol/l, 37°C
  Zeit, nach der 50% der ET-Menge gebunden sind: ca. 3 Stunden
HSA [6]
  Konzentration an ET, % der Ausgangskonzentration: ca. 21%
BSA [7]; ET-Konzentration, % des Ausgangswerts
  fraction unbound at 18 h, 2170 µM: 0.05
BSA [7]; Ethanthiol an BSA gebunden
  fraction unbound: ~0.05
BSA [7]; Konzentration an ET, % der Ausgangskonzentration
  fraction unbound: ~0.11
BSA [7]; freie Thiolkonzentration, % der Ausgangskonzentration
  fraction unbound: 0.02 to 0.05

## Nc1nc2ncc(CNc3ccc(C(=O)N[C@@H](CCC(=O)O)C(=O)O)cc3)nc2c(=O)[nH]1 [Folsäure]
[8]
  K-Werte: ca. 5

## CN(C)CCCN1c2ccccc2CCc2ccccc21 [Imipramin]
Plasmaproteine; plasma
  Bindung von Pharmaka an Plasmaproteine: 90%

## NNC(=O)c1ccncc1 [Isoniazid]
Plasmaproteine
  Bindung von Pharmaka an Plasmaproteine: 100%

## Nc1nc2c(c(=O)[nH]1)N(C=O)C(CNc1ccc(C(=O)N[C@@H](CCC(=O)O)C(=O)O)cc1)CN2 (stereo partly drawn) [Leucoverin]
[8]
  K-Werte: ca. 5

## CN(Cc1cnc2nc(N)nc(N)c2n1)c1ccc(C(=O)N[C@@H](CCC(=O)O)C(=O)O)cc1 [Methotrexat]
HSA [9]
  fraction unbound: 0.3 to 0.4
BSA [10]
  fraction unbound: 0.1 to 0.25
Plasmaproteine; plasma
  Bindung von Pharmaka an Plasmaproteine: 80%

## O=C(O)c1ccccc1O [Salicylsäure]
[8]
  K-Werte: ca. 5
Plasmaproteine; plasma
  Bindung von Pharmaka an Plasmaproteine: 80%

## O=C1OC(c2ccc(O)c(S(=O)(=O)O)c2)(c2ccc(O)c(S(=O)(=O)O)c2)c2c(Br)c(Br)c(Br)c(Br)c21 [Sulfobromphthalein]
[8]
  K-Werte: ca. 5

## CCCCCCCC/C=C\CCCCCCCC(=O)O [ölsäure]
BSA [11]
  Bindung von Ethanthiol an BSA durch Zugabe von ölsäure: behindert oder gar blockiert

## Phenylbutazon
[8]
  K-Werte: ca. 2
Plasmaproteine; plasma
  Bindung von Pharmaka an Plasmaproteine: 98%
